According to ChEMBL document CHEMBL1201862, “PubChem BioAssay data set” (2004):
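How tested: cells in 96-well plates exposed to compound for 48 hours at five concentrations. GI50 is the concentration that inhibits growth by half.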 Calls of active or inactive are those of the source. Cut-off read from the data, not from the text of the source: active = GI50 up to about 1.1 µM and inactive = higher.

Assays:
Assay in all cases: NCI-60 cell line screen, 48 h
[1] = test system: HCT-15
[2] = test system: MCF7
[3] = test system: SN12C
[4] = test system: UO-31
[5] = test system: NCI/ADR-RES
[6] = test system: HT-29
[7] = test system: HCT-116
[8] = test system: NCI-H522
[9] = test system: NCI-H460
[10] = test system: UACC-62
[11] = test system: RPMI-8226
[12] = test system: SF-295
[13] = test system: SNB-75
[14] = test system: RXF 393
[15] = test system: CCRF-CEM
[16] = test system: SK-OV-3
[17] = test system: LOX IMVI
[18] = test system: KM12
[19] = test system: NCI-H226
[20] = test system: OVCAR-5

`CC1(C)CCC(C)(C)c2c1ccc(O)c2Cc1c(O)ccc2c1C(C)(C)CCC2(C)C` was tested, and the GI50 [1] was 1.92 µM, the GI50 [2] was 1.84 µM (inactive) and the GI50 [3] was 1.82 µM (inactive). For the same compound, the GI50 [4] was 1.92 µM (inactive), the GI50 [5] was 2.08 µM (inactive) and the GI50 [6] was 2.19 µM (inactive). For the same compound, the GI50 [7] was 2 µM (inactive), the GI50 [8] was 1.97 µM (inactive) and the GI50 [9] was 2.47 µM (inactive). For the same compound, the GI50 [10] was 2.02 µM (inactive), the GI50 [11] was 1.87 µM (inactive) and the GI50 [12] was 2.45 µM (inactive). The GI50 [13] was 2.01 µM (inactive), the GI50 [14] was 1.87 µM (inactive) and the GI50 [15] was 2.31 µM (inactive). The GI50 [16] was 2.3 µM (inactive), the GI50 [17] was 1.84 µM (inactive) and the GI50 [18] was 1.95 µM (inactive). For the same compound, the GI50 [19] was 1.88 µM (inactive) and the GI50 [20] was 2.25 µM (inactive).

For `CC(NCCS(=O)(=O)O)C(=O)O` (stereo not drawn), the GI50 [1] was over 100 µM, the GI50 [2] was > 100 µM (inactive) and the GI50 [3] was > 100 µM (inactive). For the same compound, the GI50 [4] was > 100 µM (inactive), the GI50 [5] was > 100 µM (inactive) and the GI50 [6] was > 100 µM (inactive). The GI50 [7] was > 100 µM (inactive), the GI50 [8] was > 100 µM (inactive) and the GI50 [9] was > 100 µM (inactive). The GI50 [10] was > 100 µM (inactive), the GI50 [11] was > 100 µM (inactive) and the GI50 [12] was > 100 µM (inactive). The GI50 [13] was > 100 µM (inactive), the GI50 [14] was > 100 µM (inactive) and the GI50 [15] was > 100 µM (inactive). For the same compound, the GI50 [16] was > 100 µM (inactive), the GI50 [17] was > 100 µM (inactive) and the GI50 [18] was > 100 µM (inactive). The GI50 [19] was > 100 µM (inactive) and the GI50 [20] was > 100 µM (inactive).

`O=C(O)CNS(=O)(=O)c1ccc(NC(=O)Nc2ccccc2)cc1` was tested, and the GI50 [1] was over 100 µM, the GI50 [2] was > 100 µM (inactive) and the GI50 [3] was > 100 µM (inactive). For the same compound, the GI50 [4] was > 100 µM (inactive), the GI50 [5] was > 100 µM (inactive) and the GI50 [6] was > 100 µM (inactive). For the same compound, the GI50 [7] was > 100 µM (inactive), the GI50 [8] was > 100 µM (inactive) and the GI50 [9] was > 100 µM (inactive). The GI50 [10] was > 38.3 µM (inactive), the GI50 [11] was > 100 µM (inactive) and the GI50 [12] was > 100 µM (inactive). For the same compound, the GI50 [13] was > 100 µM (inactive), the GI50 [14] was > 100 µM (inactive) and the GI50 [15] was > 100 µM (inactive). For the same compound, the GI50 [16] was > 100 µM (inactive), the GI50 [17] was > 100 µM (inactive) and the GI50 [18] was > 100 µM (inactive). The GI50 [19] was > 100 µM (inactive) and the GI50 [20] was > 100 µM (inactive).

In the case of `O=C1NCN(c2ccccc2)C12CCN(CCCN1CCN(CCOC(c3ccc(F)cc3)c3ccc(F)cc3)CC1)CC2`, the GI50 [1] is reported as 2.23 µM, the GI50 [2] is reported as 1.92 µM (inactive) and the GI50 [3] is reported as 1.96 µM (inactive). The GI50 [4] was 1.74 µM (inactive), the GI50 [5] was 11 µM (inactive) and the GI50 [6] was 1.26 µM (inactive). For the same compound, the GI50 [7] was 1.7 µM (inactive), the GI50 [8] was 1.9 µM (inactive) and the GI50 [9] was 2 µM (inactive). For the same compound, the GI50 [10] was 2.05 µM (inactive), the GI50 [11] was 2.04 µM (inactive) and the GI50 [12] was 1.83 µM (inactive). For the same compound, the GI50 [14] was 1.04 µM (active), the GI50 [15] was 3.31 µM (inactive) and the GI50 [16] was 2.22 µM (inactive). The GI50 [17] was 1.86 µM (inactive), the GI50 [18] was 2.43 µM (inactive) and the GI50 [19] was 1.86 µM (inactive). For the same compound, the GI50 [20] was 3.15 µM (inactive).

With `Clc1nc(Cl)nc(Nc2cccc3ccccc23)n1` the GI50 [1] was over 10 µM, the GI50 [2] was > 10 µM (inactive) and the GI50 [3] was > 10 µM (inactive). The GI50 [4] was > 10 µM (inactive), the GI50 [5] was > 10 µM (inactive) and the GI50 [6] was > 10 µM (inactive). The GI50 [7] was > 10 µM (inactive), the GI50 [8] was > 10 µM (inactive) and the GI50 [9] was > 10 µM (inactive). For the same compound, the GI50 [10] was > 10 µM (inactive), the GI50 [11] was > 10 µM (inactive) and the GI50 [12] was > 10 µM (inactive). The GI50 [13] was > 10 µM (inactive), the GI50 [14] was > 10 µM (inactive) and the GI50 [15] was > 10 µM (inactive). For the same compound, the GI50 [16] was > 10 µM (inactive), the GI50 [17] was > 10 µM (inactive) and the GI50 [18] was > 10 µM (inactive). The GI50 [19] was > 10 µM (inactive) and the GI50 [20] was > 10 µM (inactive).

`COC(=O)C1CC=C(SC(=O)c2ccccc2)N1C(=O)c1ccccc1` (stereo not drawn) was tested, and the GI50 [1] was over 100 µM, the GI50 [2] was > 100 µM (inactive) and the GI50 [4] was > 100 µM (inactive). The GI50 [5] was > 100 µM (inactive), the GI50 [6] was > 100 µM (inactive) and the GI50 [7] was > 100 µM (inactive). The GI50 [8] was > 100 µM (inactive), the GI50 [9] was 39.6 µM (inactive) and the GI50 [10] was > 100 µM (inactive). For the same compound, the GI50 [11] was > 100 µM (inactive), the GI50 [12] was > 100 µM (inactive) and the GI50 [13] was 76 µM (inactive). The GI50 [14] was > 100 µM (inactive), the GI50 [16] was > 100 µM (inactive) and the GI50 [18] was > 100 µM (inactive). For the same compound, the GI50 [20] was > 100 µM (inactive).

`COC(=O)c1c(O)ccc2c1c1c(n2Cc2cccc(C)c2)C(=O)c2ccccc2C1=O` was tested, and the GI50 [1] was 8.05 µM, the GI50 [2] was 5.37 µM (inactive) and the GI50 [3] was 7.76 µM (inactive). The GI50 [4] was 5.92 µM (inactive), the GI50 [5] was 9.42 µM (inactive) and the GI50 [6] was 4.07 µM (inactive). For the same compound, the GI50 [7] was 6.97 µM (inactive), the GI50 [8] was 11.5 µM (inactive) and the GI50 [9] was 4.29 µM (inactive). For the same compound, the GI50 [11] was 3.72 µM (inactive), the GI50 [12] was 13 µM (inactive) and the GI50 [14] was 10.7 µM (inactive). The GI50 [15] was 4.86 µM (inactive), the GI50 [16] was 11.4 µM (inactive) and the GI50 [17] was 11.7 µM (inactive). For the same compound, the GI50 [18] was 11 µM (inactive), the GI50 [19] was 17.4 µM (inactive) and the GI50 [20] was 22.5 µM (inactive).
